Test results from PubChem BioAssay (NCI).
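48-hour exposure; five concentrations; linearly interpolated endpoints. At the TGI there is no net growth.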

Experiments:
Assay in all cases: inhibition of tumour cell growth, NCI panel, 48 h
SNB-75 CNS = system: SNB-75 CNS
A549 NSCLC = system: A549 NSCLC
HS 578T breast = system: HS 578T breast
NCI-H522 lung = system: NCI-H522 lung
ACHN renal = system: ACHN renal
HCT-116 colon = system: HCT-116 colon
PC-3 prostate = system: PC-3 prostate
NCI-H23 lung = system: NCI-H23 lung
SF-295 CNS = system: SF-295 CNS
NCI-H226 lung = system: NCI-H226 lung
HOP-62 NSCLC = system: HOP-62 NSCLC
SK-OV-3 ovarian = system: SK-OV-3 ovarian
BT-549 breast = system: BT-549 breast
OVCAR-4 ovarian = system: OVCAR-4 ovarian
HCT-15 colon = system: HCT-15 colon
CCRF-CEM leukemia = system: CCRF-CEM leukemia
HL-60(TB) leukemia = system: HL-60(TB) leukemia
SK-MEL-5 melanoma = system: SK-MEL-5 melanoma
K-562 leukemia = system: K-562 leukemia
MALME-3M melanoma = system: MALME-3M melanoma
NCI/ADR-RES ovarian = system: NCI/ADR-RES ovarian
M14 melanoma = system: M14 melanoma
COLO 205 colon = system: COLO 205 colon
SF-539 CNS = system: SF-539 CNS
EKVX NSCLC = system: EKVX NSCLC
A498 renal = system: A498 renal
HT29 colon = system: HT29 colon
OVCAR-5 ovarian = system: OVCAR-5 ovarian
SN12C renal = system: SN12C renal
UO-31 renal = system: UO-31 renal
MOLT-4 leukemia = system: MOLT-4 leukemia
IGROV1 ovarian = system: IGROV1 ovarian
MDA-N = system: MDA-N
SK-MEL-28 melanoma = system: SK-MEL-28 melanoma
DU-145 prostate = system: DU-145 prostate
CAKI-1 renal = system: CAKI-1 renal
TK-10 renal = system: TK-10 renal
MCF7 breast = system: MCF7 breast
LOX IMVI melanoma = system: LOX IMVI melanoma
RXF 393 renal = system: RXF 393 renal
HOP-92 NSCLC = system: HOP-92 NSCLC
NCI-H460 lung = system: NCI-H460 lung
U251 CNS = system: U251 CNS
SW-620 colon = system: SW-620 colon
SNB-19 CNS = system: SNB-19 CNS
786-0 renal = system: 786-0 renal
OVCAR-8 ovarian = system: OVCAR-8 ovarian
KM12 colon = system: KM12 colon
MDA-MB-231 breast = system: MDA-MB-231 breast
SR leukemia = system: SR leukemia
SK-MEL-2 melanoma = system: SK-MEL-2 melanoma
MDA-MB-435 = system: MDA-MB-435
OVCAR-3 ovarian = system: OVCAR-3 ovarian
UACC-62 melanoma = system: UACC-62 melanoma
SF-268 CNS = system: SF-268 CNS
T-47D breast = system: T-47D breast
UACC-257 melanoma = system: UACC-257 melanoma
RPMI-8226 leukemia = system: RPMI-8226 leukemia
HCC-2998 colon = system: HCC-2998 colon

Cc1cccc(N2C(=O)C3ON(C(C(N)=O)c4ccccc4)C(c4c5ccccc5c(Cl)c5ccccc45)C3C2=O)c1C (centres undefined)
TGI (SNB-75 CNS): 19.4 µM | TGI (A549 NSCLC): 48.5 µM | TGI (HS 578T breast): > 50 µM | TGI (NCI-H522 lung): > 50 µM | TGI (ACHN renal): 19.7 µM | TGI (HCT-116 colon): 3.84 µM | TGI (PC-3 prostate): 17 µM | TGI (NCI-H23 lung): 32.1 µM | TGI (SF-295 CNS): 23 µM | TGI (NCI-H226 lung): 14.9 µM | TGI (HOP-62 NSCLC): 24.4 µM | TGI (SK-OV-3 ovarian): > 50 µM | TGI (BT-549 breast): 22.6 µM | TGI (OVCAR-4 ovarian): 25.3 µM | TGI (HCT-15 colon): 22 µM | TGI (CCRF-CEM leukemia): > 50 µM | TGI (HL-60(TB) leukemia): 23.3 µM | TGI (SK-MEL-5 melanoma): 13.9 µM | TGI (K-562 leukemia): > 50 µM | TGI (MALME-3M melanoma): 34.7 µM | TGI (NCI/ADR-RES ovarian): 37.1 µM | TGI (M14 melanoma): 16.1 µM | TGI (COLO 205 colon): 16.7 µM | TGI (SF-539 CNS): 16.8 µM | TGI (EKVX NSCLC): 22.5 µM | TGI (A498 renal): 32.2 µM | TGI (HT29 colon): 14.9 µM | TGI (OVCAR-5 ovarian): 20.7 µM | TGI (SN12C renal): 15.6 µM | TGI (UO-31 renal): 24.2 µM | TGI (MOLT-4 leukemia): 10.2 µM | TGI (IGROV1 ovarian): 32.4 µM | TGI (MDA-N): 10 µM | TGI (SK-MEL-28 melanoma): 41.7 µM | TGI (DU-145 prostate): 43.2 µM | TGI (CAKI-1 renal): 27.3 µM | TGI (TK-10 renal): 25.3 µM | TGI (MCF7 breast): 17.9 µM | TGI (LOX IMVI melanoma): 16.5 µM | TGI (RXF 393 renal): 13.5 µM | TGI (HOP-92 NSCLC): 22.6 µM | TGI (NCI-H460 lung): 21.6 µM | TGI (U251 CNS): 15.6 µM | TGI (SW-620 colon): > 50 µM | TGI (SNB-19 CNS): 18.4 µM | TGI (786-0 renal): 20.5 µM | TGI (OVCAR-8 ovarian): 25.1 µM | TGI (KM12 colon): 8.08 µM | TGI (MDA-MB-231 breast): 18.1 µM | TGI (SR leukemia): 5.53 µM | TGI (SK-MEL-2 melanoma): 20 µM | TGI (MDA-MB-435): 14.6 µM | TGI (OVCAR-3 ovarian): 17.5 µM | TGI (UACC-62 melanoma): 13.8 µM | TGI (SF-268 CNS): 27.3 µM | TGI (T-47D breast): 32.1 µM | TGI (UACC-257 melanoma): 18.1 µM

CCOC(=O)c1cc(C2(O)CCN(Cc3ccccc3)C2=O)c(-c2cc(C)no2)[nH]1 (centres undefined)
TGI (SNB-75 CNS): 85.8 µM | TGI (A549 NSCLC): > 100 µM | TGI (HS 578T breast): > 100 µM | TGI (NCI-H522 lung): 43.3 µM | TGI (ACHN renal): > 100 µM | TGI (HCT-116 colon): > 100 µM | TGI (PC-3 prostate): > 100 µM | TGI (NCI-H23 lung): > 100 µM | TGI (SF-295 CNS): 78.4 µM | TGI (NCI-H226 lung): > 100 µM | TGI (HOP-62 NSCLC): > 100 µM | TGI (BT-549 breast): > 100 µM | TGI (OVCAR-4 ovarian): > 100 µM | TGI (HCT-15 colon): > 100 µM | TGI (CCRF-CEM leukemia): > 100 µM | TGI (HL-60(TB) leukemia): 34.7 µM | TGI (SK-MEL-5 melanoma): > 100 µM | TGI (K-562 leukemia): > 100 µM | TGI (MALME-3M melanoma): > 100 µM | TGI (NCI/ADR-RES ovarian): > 100 µM | TGI (M14 melanoma): > 100 µM | TGI (COLO 205 colon): > 100 µM | TGI (SF-539 CNS): > 100 µM | TGI (EKVX NSCLC): > 100 µM | TGI (RPMI-8226 leukemia): > 100 µM | TGI (A498 renal): > 100 µM | TGI (OVCAR-5 ovarian): > 100 µM | TGI (SN12C renal): > 100 µM | TGI (UO-31 renal): > 100 µM | TGI (MOLT-4 leukemia): 41.9 µM | TGI (IGROV1 ovarian): > 100 µM | TGI (MDA-N): > 100 µM | TGI (SK-MEL-28 melanoma): > 100 µM | TGI (DU-145 prostate): > 100 µM | TGI (CAKI-1 renal): 74.3 µM | TGI (TK-10 renal): > 100 µM | TGI (MCF7 breast): > 100 µM | TGI (LOX IMVI melanoma): > 100 µM | TGI (RXF 393 renal): 65.7 µM | TGI (NCI-H460 lung): > 100 µM | TGI (U251 CNS): > 100 µM | TGI (SW-620 colon): > 100 µM | TGI (HCC-2998 colon): > 100 µM | TGI (SNB-19 CNS): > 100 µM | TGI (786-0 renal): > 100 µM | TGI (OVCAR-8 ovarian): > 100 µM | TGI (KM12 colon): > 100 µM | TGI (MDA-MB-231 breast): > 100 µM | TGI (SR leukemia): > 100 µM | TGI (SK-MEL-2 melanoma): > 100 µM | TGI (MDA-MB-435): > 100 µM | TGI (OVCAR-3 ovarian): > 100 µM | TGI (UACC-62 melanoma): > 100 µM | TGI (SF-268 CNS): > 100 µM | TGI (T-47D breast): 74.8 µM | TGI (UACC-257 melanoma): > 100 µM

N#CC1=C(N)OC2=C(CSc3ccccc32)C1c1ccc(Br)cc1 (centres undefined)
TGI (SNB-75 CNS): 21.7 µM | TGI (A549 NSCLC): 27.2 µM | TGI (HS 578T breast): > 100 µM | TGI (HCT-116 colon): 14.2 µM | TGI (PC-3 prostate): 16.8 µM | TGI (NCI-H23 lung): 26.4 µM | TGI (SF-295 CNS): 29 µM | TGI (NCI-H226 lung): 27.9 µM | TGI (HOP-62 NSCLC): 32.7 µM | TGI (SK-OV-3 ovarian): 27 µM | TGI (BT-549 breast): 28.4 µM | TGI (OVCAR-4 ovarian): 19.3 µM | TGI (HCT-15 colon): 24.5 µM | TGI (CCRF-CEM leukemia): 6.83 µM | TGI (HL-60(TB) leukemia): 6.17 µM | TGI (SK-MEL-5 melanoma): 25.7 µM | TGI (K-562 leukemia): 11.3 µM | TGI (MALME-3M melanoma): 30.7 µM | TGI (NCI/ADR-RES ovarian): 7.75 µM | TGI (M14 melanoma): 39.8 µM | TGI (COLO 205 colon): 10.8 µM | TGI (SF-539 CNS): 13.7 µM | TGI (EKVX NSCLC): 11.4 µM | TGI (RPMI-8226 leukemia): 5.52 µM | TGI (A498 renal): 27.2 µM | TGI (HT29 colon): 18.4 µM | TGI (OVCAR-5 ovarian): 32.7 µM | TGI (SN12C renal): 20.4 µM | TGI (UO-31 renal): 26.7 µM | TGI (MOLT-4 leukemia): 8.44 µM | TGI (IGROV1 ovarian): 25.8 µM | TGI (MDA-N): 14.4 µM | TGI (SK-MEL-28 melanoma): 28 µM | TGI (DU-145 prostate): > 100 µM | TGI (CAKI-1 renal): 26.4 µM | TGI (TK-10 renal): 31.2 µM | TGI (MCF7 breast): 13.8 µM | TGI (LOX IMVI melanoma): 11.2 µM | TGI (RXF 393 renal): 16.3 µM | TGI (HOP-92 NSCLC): 21.5 µM | TGI (NCI-H460 lung): 26.8 µM | TGI (U251 CNS): 19.9 µM | TGI (SW-620 colon): 23.8 µM | TGI (SNB-19 CNS): 51.9 µM | TGI (786-0 renal): 22.8 µM | TGI (OVCAR-8 ovarian): 14.8 µM | TGI (KM12 colon): 44.6 µM | TGI (MDA-MB-231 breast): 29.3 µM | TGI (SR leukemia): 10.3 µM | TGI (SK-MEL-2 melanoma): 23 µM | TGI (MDA-MB-435): 7.82 µM | TGI (OVCAR-3 ovarian): 21.6 µM | TGI (UACC-62 melanoma): 21.8 µM | TGI (SF-268 CNS): 25.6 µM | TGI (T-47D breast): 25.8 µM | TGI (UACC-257 melanoma): 30.2 µM
